Measurements: patent publication US12233161B1, “Lipids and lipid nanoparticle formulations” (LONGUIDE BIOPHARMA CORPORATION, priority 2024, dated 2025)
Each block holds one molecule with its values, some of them ahead of it.

What was measured:
[1] = system: mice; assay: In vivo delivery of FLuc-mRNA lipid nanoparticles in mice, in vivo imaging (IVIS)
Method in brief: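 Mice (n=3) received about 75 μL FLuc-mRNA LNP per mouse intramuscularly (rectus femoris), intravenously (tail vein), intraperitoneally or subcutaneously (back). After injection, D-luciferin (200 μL, 15 mg/mL) was given i.p. 10-15 min before IVIS imaging.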

[2] = Particle size and PDI of nucleic acid lipid nanoparticle preparations by dynamic light scattering; type: physicochemical
Experimental: The 7.5 μL nucleic acid lipid nanoparticle solution (containing approximately 0.04 mg/mL mRNA) was taken and added with 200 μL ultrapure water, mixed by gentle blowing using a pipette tip, and the particle size of the nanopreparation was detected by dynamic lightscattering (DLS) using a Malvern Dynamic Light Scattering Instrument (Malvern Instruments Ltd., ZEN3700, UK).
27.5 μL nucleic acid lipid nanoparticle solution (containing about 0.04 mg/mL mRNA) was taken and added with 200 μL ultrapure water. A pipette tip was used to gently blow the sample and mix well. The particle size of the nanopreparation was detected by Malvern Dynamic Light Scattering Instrument (Malvern Instruments Ltd., ZEN3700, UK). After the detection, the sample was recovered to an EP tube, and 600 μL of ultrapure water was added, gently blown with a pipette tip, and the potential of the nanopreparation was measured by a Malvern particle size meter.

[3] = DMG-PEG2000:DSPC:Chol:Lipid 1.00:16.00:48.00:35.00, N/P 18, IV, liver
[4] = DMG-PEG2000:DSPC:Chol:Lipid 1.00:16.00:48.00:35.00, N/P 18, IV, lung
[5] = DMG-PEG2000:DSPC:Chol:Lipid 1.00:16.00:48.00:35.00, N/P 18, IV, spleen
[6] = DMG-PEG2000:DSPC:Chol:Lipid 1.50:16.00:17.50:65.00, N/P 45, IV, liver
[7] = DMG-PEG2000:DSPC:Chol:Lipid 1.50:16.00:17.50:65.00, N/P 45, IV, lung
[8] = DMG-PEG2000:DSPC:Chol:Lipid 1.50:16.00:17.50:65.00, N/P 45, IV, spleen
[9] = DMG-PEG2000:DSPC:Chol:Lipid 1.00:16.00:48.00:35.00, N/P 18, mRNA LNP
[10] = DMG-PEG2000:DSPC:Chol:Lipid 1.50:4.00:69.50:25.00, N/P 18, mRNA LNP
[11] = DMG-PEG2000:DSPC:Chol:Lipid 1.50:16.00:17.50:65.00, N/P 45, mRNA LNP
[12] = DMG-PEG2000:DSPC:Chol:Lipid 1.77:14.07:49.16:35.00, N/P 30, mRNA LNP
[13] = DMG-PEG2000:DSPC:Chol:Lipid 1.40:11.15:38.95:48.50, N/P 30, mRNA LNP
[14] = DMG-PEG2000:DSPC:Chol:Lipid 1.40:11.15:38.95:48.50, N/P 18, mRNA LNP
[15] = IM, DMG-PEG2000:DSPC:Chol:compound 1.40:11.15:38.95:48.50, N/P 20, Fluc-mRNA
[16] = DMG-PEG2000:DSPC:Chol:compound 1.40:11.15:38.95:48.50, N/P 20
[17] = IM, DMG-PEG2000:DSPC:Chol:compound 1.40:11.15:38.95:48.50, N/P 30, Fluc-mRNA
[18] = IV, body, DMG-PEG2000:DSPC:Chol:compound 1.40:11.15:38.95:48.50, N/P 30, Fluc-mRNA
[19] = IV, liver, DMG-PEG2000:DSPC:Chol:compound 1.40:11.15:38.95:48.50, N/P 30
[20] = IV, liver, DMG-PEG2000:DSPC:Chol:compound 1.40:11.15:38.95:48.50, N/P 30, Fluc-mRNA
[21] = IV, lung, DMG-PEG2000:DSPC:Chol:compound 1.40:11.15:38.95:48.50, N/P 30
[22] = IV, lung, DMG-PEG2000:DSPC:Chol:compound 1.40:11.15:38.95:48.50, N/P 30, Fluc-mRNA
[23] = IV, spleen, DMG-PEG2000:DSPC:Chol:compound 1.40:11.15:38.95:48.50, N/P 30
[24] = IV, spleen, DMG-PEG2000:DSPC:Chol:compound 1.40:11.15:38.95:48.50, N/P 30, Fluc-mRNA
[25] = DMG-PEG2000:DSPC:Chol:compound 1.40:11.15:38.95:48.50, N/P 30
[26] = DMG-PEG2000:DSPC:Chol:compound 1.40:11.15:38.95:48.50, N/P 40

- PDI [2, 9]: 0.15 ± 0.01
- Particle size [2, 9]: 93.07 ± 0.26 nm
- PDI [2, 10]: 0.12 ± 0.00
- Particle size [2, 10]: 88.12 ± 0.68 nm
- PDI [2, 11]: 0.47 ± 0.04
- Particle size [2, 11]: 232.87 ± 6.17 nm
- PDI [2, 12]: 0.13 ± 0.01
- Particle size [2, 12]: 79.38 ± 0.91 nm
SMILES: CCCCCCCCCCCCNC(=O)C(O)CN(CCCN(CCCCCCO)CCCN(CC(O)C(=O)NCCCCCCCCCCCC)CC(O)C(=O)NCCCCCCCCCCCC)CC(O)C(=O)NCCCCCCCCCCCC (stereo not drawn) [Compound L0274]
- IVIS ([1]; DMG-PEG2000:DSPC:Chol:Lipid 1.00:16.00:48.00:35.00, N/P 18, IV, body): 3.12 × 10^8
- % of organ targeting [1, 3]: 29.22%
- IVIS [1, 3]: 4.76 × 10^7
- % of organ targeting [1, 4]: 8.16%
- IVIS [1, 4]: 1.33 × 10^7
- % of organ targeting [1, 5]: 62.62%
- IVIS [1, 5]: 1.02 × 10^8
- IVIS ([1]; DMG-PEG2000:DSPC:Chol:Lipid 1.50:4.00:69.50:25.00, N/P 18, IM, whole body scan): 6.20 × 10^6
- IVIS ([1]; DMG-PEG2000:DSPC:Chol:Lipid 1.50:16.00:17.50:65.00, N/P 45, IV, body): 1.52 × 10^8
- % of organ targeting [1, 6]: 1.10%
- IVIS [1, 6]: 4.17 × 10^6
- % of organ targeting [1, 7]: 84.18%
- IVIS [1, 7]: 3.19 × 10^8
- % of organ targeting [1, 8]: 14.72%
- IVIS [1, 8]: 5.58 × 10^7
- IVIS ([1]; DMG-PEG2000:DSPC:Chol:Lipid 1.77:14.07:49.16:35.00, N/P 30, IM, whole body scan): 1.23 × 10^7
- in vivo delivery efficiency as compared to the benchmark compound SM102 ([1]; certain formulations, Table 2): superior in vivo delivery efficiency
- tissue-targeting specificity (lung vs spleen depending on molar percentage of compound) ([1]; certain formulations, Table 2): strong tissue-targeting specificity

- PDI [2, 13]: 0.23 ± 0.02
- Particle size [2, 13]: 98.58 ± 2.89 nm
SMILES: CCCCCCCCCCCCOC(=O)C(O)CN(C)CCN(C)CCN(C)CC(O)C(=O)OCCCCCCCCCCCC (stereo not drawn) [Compound L0276]
- IVIS ([1]; DMG-PEG2000:DSPC:Chol:Lipid 1.40:11.15:38.95:48.50, N/P 30, IM, whole body scan): 1.81 × 10^6
- IVIS ([1]; DMG-PEG2000:DSPC:Chol:Lipid 1.40:11.15:38.95:48.50, N/P 30, IV, body (whole body scan)): 1.60 × 10^5

- PDI [2, 14]: 0.21 ± 0.00
- Particle size [2, 14]: 99.36 ± 2.16 nm
SMILES: CCCCCCCCCCNC(=O)C(O)CN(C)CCN(C)CCN(C)CC(O)C(=O)NCCCCCCCCCC (stereo not drawn) [Compound L0277]
- IVIS ([1]; DMG-PEG2000:DSPC:Chol:Lipid 1.40:11.15:38.95:48.50, N/P 18, IM, whole body scan): 2.60 × 10^5
- IVIS ([1]; DMG-PEG2000:DSPC:Chol:Lipid 1.40:11.15:38.95:48.50, N/P 18, IV, whole body scan): 4.28 × 10^5

- PDI [2, 16]: 0.14
- Particle size (nm) [2, 16]: 84.96 nm
SMILES: CCCCCCCCCCCCNC(=O)C(O)CN(CCOCCN(CC(O)C(=O)NCCCCCCCCCCCC)CC(O)C(=O)NCCCCCCCCCCCC)CC(O)C(=O)NCCCCCCCCCCCC (stereo not drawn) [Compound L0306]
- IVIS [1, 15]: 1.82E+06
- IVIS ([1]; IV, organ not given, DMG-PEG2000:DSPC:Chol:compound 1.40:11.15:38.95:48.50, N/P 20, Fluc-mRNA): 7.90E+06

- PDI [2, 16]: 0.11
- Particle size (nm) [2, 16]: 180.63 nm
SMILES: CCCCCCCCCCCCOC(=O)C(O)CN(CCOCCOCCN(CC(O)C(=O)OCCCCCCCCCCCC)CC(O)C(=O)OCCCCCCCCCCCC)CC(O)C(=O)OCCCCCCCCCCCC (stereo not drawn) [Compound L0309]
- IVIS [1, 15]: 3.09E+06
- IVIS ([1]; IV, body, DMG-PEG2000:DSPC:Chol:compound 1.40:11.15:38.95:48.50, N/P 20, Fluc-mRNA): 1.24E+06
- % of organ targeting ([1]; IV, liver, DMG-PEG2000:DSPC:Chol:compound 1.40:11.15:38.95:48.50, N/P 20): 21.49%
- IVIS ([1]; IV, liver, DMG-PEG2000:DSPC:Chol:compound 1.40:11.15:38.95:48.50, N/P 20, Fluc-mRNA): 5.48E+05
- % of organ targeting ([1]; IV, lung, DMG-PEG2000:DSPC:Chol:compound 1.40:11.15:38.95:48.50, N/P 20): 3.37%
- IVIS ([1]; IV, lung, DMG-PEG2000:DSPC:Chol:compound 1.40:11.15:38.95:48.50, N/P 20, Fluc-mRNA): 8.60E+04
- % of organ targeting ([1]; IV, spleen, DMG-PEG2000:DSPC:Chol:compound 1.40:11.15:38.95:48.50, N/P 20): 75.14%
- IVIS ([1]; IV, spleen, DMG-PEG2000:DSPC:Chol:compound 1.40:11.15:38.95:48.50, N/P 20, Fluc-mRNA): 1.91E+06

- PDI [2, 25]: 0.16
- Particle size (nm) [2, 25]: 91.76 nm
SMILES: CCCCCCCC/C=C\CCCCCCCCNC(=O)C(O)CN(CCN(C)CCN(CC(O)C(=O)NCCCCCCCC/C=C\CCCCCCCC)CC(O)C(=O)NCCCCCCCC/C=C\CCCCCCCC)CC(O)C(=O)NCCCCCCCC/C=C\CCCCCCCC (stereo not drawn) [Compound L0299]
- IVIS [1, 17]: 1.92E+06
- IVIS [1, 18]: 1.55E+07
- % of organ targeting [1, 19]: 7.28%
- IVIS [1, 20]: 7.84E+05
- % of organ targeting [1, 21]: 41.60%
- IVIS [1, 22]: 4.48E+06
- % of organ targeting [1, 23]: 51.12%
- IVIS [1, 24]: 5.50E+06

- PDI [2, 26]: 0.11
- Particle size (nm) [2, 26]: 150.47 nm
SMILES: CCCCCCCCCCCCNCC(O)CN(CCCNC(=O)CCN(CCCN(CCC(=O)NCCCN(CC(O)C(=O)NCCCCCCCCCCCC)CC(O)C(=O)NCCCCCCCCCCCC)CCC(=O)NCCCN(CC(O)C(=O)NCCCCCCCCCCCC)CC(O)C(=O)NCCCCCCCCCCCC)CCC(=O)NCCCN(CC(O)C(=O)NCCCCCCCCCCCC)CC(O)C(=O)NCCCCCCCCCCCC)CC(O)C(=O)NCCCCCCCCCCCC (stereo not drawn) [Compound L0328]
- IVIS ([1]; IM, DMG-PEG2000:DSPC:Chol:compound 1.40:11.15:38.95:48.50, N/P 40, Fluc-mRNA): 9.40E+05
- IVIS ([1]; IV, body, DMG-PEG2000:DSPC:Chol:compound 1.40:11.15:38.95:48.50, N/P 40, Fluc-mRNA): 3.55E+07
- % of organ targeting ([1]; IV, liver, DMG-PEG2000:DSPC:Chol:compound 1.40:11.15:38.95:48.50, N/P 40): 51.92%
- IVIS ([1]; IV, liver, DMG-PEG2000:DSPC:Chol:compound 1.40:11.15:38.95:48.50, N/P 40, Fluc-mRNA): 5.62E+06
- % of organ targeting ([1]; IV, lung, DMG-PEG2000:DSPC:Chol:compound 1.40:11.15:38.95:48.50, N/P 40): 1.56%
- IVIS ([1]; IV, lung, DMG-PEG2000:DSPC:Chol:compound 1.40:11.15:38.95:48.50, N/P 40, Fluc-mRNA): 1.69E+05
- % of organ targeting ([1]; IV, spleen, DMG-PEG2000:DSPC:Chol:compound 1.40:11.15:38.95:48.50, N/P 40): 46.52%
- IVIS ([1]; IV, spleen, DMG-PEG2000:DSPC:Chol:compound 1.40:11.15:38.95:48.50, N/P 40, Fluc-mRNA): 5.04E+06

- PDI [2, 25]: 0.06
- Particle size (nm) [2, 25]: 146.13 nm
SMILES: CC/C=C\CCOCOCCCCCCOC(=O)C(O)CN(CCN(C)CCN(CC(O)C(=O)OCCCCCCOCOCC/C=C\CC)CC(O)C(=O)OCCCCCCOCOCC/C=C\CC)CC(O)C(=O)OCCCCCCOCOCC/C=C\CC (stereo not drawn) [Compound L0334]
- IVIS [1, 17]: 6.25E+05
- IVIS [1, 18]: 5.29E+08
- % of organ targeting [1, 19]: 57.03%
- IVIS [1, 20]: 1.01E+08
- % of organ targeting [1, 21]: 6.95%
- IVIS [1, 22]: 1.22E+07
- % of organ targeting [1, 23]: 36.03%
- IVIS [1, 24]: 6.35E+07
